{"source": "patent US8691753B2", "about": "(priority 2009, dated 2014)", "key": {"MMP-3h": {"target": "MMP-3h (Homo sapiens (Human), UniProt P08254)", "sequence (P08254 100-477)": "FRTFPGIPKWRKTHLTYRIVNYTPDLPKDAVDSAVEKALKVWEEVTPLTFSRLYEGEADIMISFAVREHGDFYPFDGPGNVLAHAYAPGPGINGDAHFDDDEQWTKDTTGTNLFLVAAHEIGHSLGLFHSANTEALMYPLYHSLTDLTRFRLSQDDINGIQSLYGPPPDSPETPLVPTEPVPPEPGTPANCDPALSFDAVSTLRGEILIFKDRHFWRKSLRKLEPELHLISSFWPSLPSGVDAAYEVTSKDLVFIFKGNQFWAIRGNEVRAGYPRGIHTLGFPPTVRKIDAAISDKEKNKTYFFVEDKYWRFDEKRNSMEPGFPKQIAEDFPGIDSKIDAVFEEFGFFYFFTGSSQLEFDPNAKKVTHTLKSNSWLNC", "assay": "Inhibition constant (Ki) on MMP-3h", "assay_type": "biochemical", "conditions": "human MMP-3", "how_it_was_run": "(§1)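 Readout is Ki, obtained with a literature enzymatic protocol; all enzymes tested were human.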"}, "MMP-14h": {"target": "MMP-14h (Homo sapiens (Human), UniProt P50281)", "assay": "Inhibition constant (Ki) on MMP-14h", "assay_type": "biochemical", "conditions": "human MMP-14", "how_it_was_run": "as §1"}, "MMP-9h": {"target": "MMP-9h (Homo sapiens (Human), UniProt P14780)", "sequence (P14780 94-707)": "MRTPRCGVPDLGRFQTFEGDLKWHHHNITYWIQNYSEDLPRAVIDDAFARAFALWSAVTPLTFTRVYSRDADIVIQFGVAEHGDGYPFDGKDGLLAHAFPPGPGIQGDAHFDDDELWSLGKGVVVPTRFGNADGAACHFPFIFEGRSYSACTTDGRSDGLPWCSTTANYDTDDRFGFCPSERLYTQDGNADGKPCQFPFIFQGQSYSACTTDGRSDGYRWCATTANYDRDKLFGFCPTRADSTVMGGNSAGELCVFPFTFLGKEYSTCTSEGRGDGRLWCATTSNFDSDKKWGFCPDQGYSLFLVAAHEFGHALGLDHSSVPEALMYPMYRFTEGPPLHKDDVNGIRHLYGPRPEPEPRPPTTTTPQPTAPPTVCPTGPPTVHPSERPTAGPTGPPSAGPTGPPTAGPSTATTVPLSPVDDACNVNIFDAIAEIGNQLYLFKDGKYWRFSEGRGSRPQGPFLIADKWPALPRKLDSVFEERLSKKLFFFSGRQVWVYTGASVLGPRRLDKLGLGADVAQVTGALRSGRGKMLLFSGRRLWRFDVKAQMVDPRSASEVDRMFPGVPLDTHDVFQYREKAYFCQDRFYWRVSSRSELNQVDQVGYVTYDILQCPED", "assay": "Inhibition constant (Ki) on MMP-9h", "assay_type": "biochemical", "conditions": "human MMP-9", "how_it_was_run": "as §1"}, "MMP-1h": {"target": "MMP-1h (Homo sapiens (Human), UniProt P03956)", "sequence (P03956 100-469)": "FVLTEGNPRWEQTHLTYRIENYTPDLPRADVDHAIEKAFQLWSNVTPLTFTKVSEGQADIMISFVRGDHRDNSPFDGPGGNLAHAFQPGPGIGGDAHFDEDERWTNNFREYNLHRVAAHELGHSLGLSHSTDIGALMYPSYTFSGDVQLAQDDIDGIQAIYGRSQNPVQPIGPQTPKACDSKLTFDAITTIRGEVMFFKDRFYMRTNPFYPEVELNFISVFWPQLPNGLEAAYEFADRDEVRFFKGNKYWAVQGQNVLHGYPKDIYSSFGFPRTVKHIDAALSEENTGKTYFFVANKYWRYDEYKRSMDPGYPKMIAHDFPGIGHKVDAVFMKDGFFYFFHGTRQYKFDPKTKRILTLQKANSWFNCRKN", "assay": "Inhibition constant (Ki) on MMP-1h", "assay_type": "biochemical", "conditions": "human MMP-1", "source_text": "(§2) The inhibition constant Ki of these compounds has been determined according to the protocol described by Devel et al, 2006, J. Biol. Chem. (7).\n(§3) In this table I and also in table II below, “h” corresponds to human. All of the compounds have therefore been evaluated on human MMPs."}, "[1]": {"assay": "Stability test in mouse blood", "assay_type": "in vitro ADME", "conditions": "after 24 hours in mouse blood", "method": "The loss of 50% of the starting material can be attributed to a phenomenon of nonspecific association of the compound with the wall of the eppendorf. It should be noted that this 50% loss of the compound was also observed after 24 hours for a solution at 10 nM in PBS buffer or in a solution at 1 μM of PBS (Bovine Serum Albumin)."}, "MMP-7h": {"target": "MMP-7h (Homo sapiens (Human), UniProt P09237)", "sequence (P09237 95-267)": "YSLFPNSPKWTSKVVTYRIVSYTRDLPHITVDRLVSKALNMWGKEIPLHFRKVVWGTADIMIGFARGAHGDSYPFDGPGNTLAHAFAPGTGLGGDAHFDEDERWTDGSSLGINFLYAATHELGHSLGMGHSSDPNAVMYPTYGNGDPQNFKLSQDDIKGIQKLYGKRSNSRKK", "assay": "Inhibition constant (Ki) on MMP-7h", "assay_type": "biochemical", "conditions": "human MMP-7", "source_text": "as §2, §3"}, "MMP-10h": {"target": "MMP-10h (Homo sapiens (Human), UniProt P09238)", "sequence (P09238 99-476)": "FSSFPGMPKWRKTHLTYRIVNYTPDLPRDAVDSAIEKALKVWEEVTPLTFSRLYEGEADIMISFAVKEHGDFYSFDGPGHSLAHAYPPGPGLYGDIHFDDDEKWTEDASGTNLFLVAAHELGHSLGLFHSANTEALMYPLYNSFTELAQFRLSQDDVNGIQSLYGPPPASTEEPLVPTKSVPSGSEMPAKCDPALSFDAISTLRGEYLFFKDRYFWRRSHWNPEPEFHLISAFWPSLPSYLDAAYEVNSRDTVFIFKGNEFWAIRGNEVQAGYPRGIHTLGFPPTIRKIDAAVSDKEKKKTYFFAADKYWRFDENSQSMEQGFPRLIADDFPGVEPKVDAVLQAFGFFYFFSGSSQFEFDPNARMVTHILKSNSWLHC", "assay": "Inhibition constant (Ki) on MMP-10h", "assay_type": "biochemical", "conditions": "human MMP-10"}, "MMP-8h": {"target": "MMP-8h (Homo sapiens (Human), UniProt P22894)", "sequence (P22894 101-467)": "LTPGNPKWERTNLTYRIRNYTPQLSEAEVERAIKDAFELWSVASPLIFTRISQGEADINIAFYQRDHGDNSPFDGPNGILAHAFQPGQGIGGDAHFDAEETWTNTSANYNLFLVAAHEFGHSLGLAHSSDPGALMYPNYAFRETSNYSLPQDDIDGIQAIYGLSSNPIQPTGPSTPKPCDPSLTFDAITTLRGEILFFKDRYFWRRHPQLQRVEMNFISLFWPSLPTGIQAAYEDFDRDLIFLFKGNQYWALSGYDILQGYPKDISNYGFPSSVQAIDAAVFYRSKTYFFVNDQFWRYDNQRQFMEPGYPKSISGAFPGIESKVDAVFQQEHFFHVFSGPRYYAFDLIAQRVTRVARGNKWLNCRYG", "assay": "Inhibition constant (Ki) on MMP-8h", "assay_type": "biochemical", "conditions": "human MMP-8"}, "MMP-13h": {"target": "MMP-13h (Homo sapiens (Human), UniProt P45452)", "assay": "Inhibition constant (Ki) on MMP-13h", "assay_type": "biochemical", "conditions": "human MMP-13", "how_it_was_run": "as §1"}, "MMP-2h": {"target": "MMP-2h (Homo sapiens (Human), UniProt P08253)", "sequence (P08253 110-660)": "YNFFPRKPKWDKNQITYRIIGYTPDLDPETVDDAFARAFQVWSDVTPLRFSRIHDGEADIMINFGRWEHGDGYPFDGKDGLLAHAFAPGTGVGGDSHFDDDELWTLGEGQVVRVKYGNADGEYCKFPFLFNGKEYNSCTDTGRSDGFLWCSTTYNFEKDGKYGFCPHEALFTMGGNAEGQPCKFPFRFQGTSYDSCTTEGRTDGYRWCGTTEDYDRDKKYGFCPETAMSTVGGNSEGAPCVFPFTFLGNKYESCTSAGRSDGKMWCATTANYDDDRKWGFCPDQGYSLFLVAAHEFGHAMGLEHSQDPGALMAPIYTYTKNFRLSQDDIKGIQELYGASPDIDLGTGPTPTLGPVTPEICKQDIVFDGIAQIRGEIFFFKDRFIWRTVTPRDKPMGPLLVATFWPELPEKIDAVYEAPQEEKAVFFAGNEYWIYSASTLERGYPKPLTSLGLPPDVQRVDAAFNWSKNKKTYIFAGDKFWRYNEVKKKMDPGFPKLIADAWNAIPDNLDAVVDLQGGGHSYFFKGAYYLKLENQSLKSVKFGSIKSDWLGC", "assay": "Inhibition constant (Ki) on MMP-2h", "assay_type": "biochemical", "conditions": "human MMP-2", "how_it_was_run": "as §1"}, "MMP-12h [2]": {"target": "T1, MMP-12h (Homo sapiens (Human), UniProt P39900)", "T1 sequence (P39900 106-470)": "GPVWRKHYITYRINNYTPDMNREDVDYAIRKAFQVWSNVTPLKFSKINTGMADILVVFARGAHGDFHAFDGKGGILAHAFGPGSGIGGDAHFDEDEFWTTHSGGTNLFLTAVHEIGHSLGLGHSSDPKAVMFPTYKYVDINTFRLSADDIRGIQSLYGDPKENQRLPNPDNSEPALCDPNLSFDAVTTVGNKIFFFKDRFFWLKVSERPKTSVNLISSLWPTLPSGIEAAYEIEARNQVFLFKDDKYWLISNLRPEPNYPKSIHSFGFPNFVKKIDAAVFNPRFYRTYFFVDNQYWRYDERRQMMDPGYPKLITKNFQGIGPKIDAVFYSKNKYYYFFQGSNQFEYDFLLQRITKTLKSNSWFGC", "assay": "Inhibition constant (Ki) on MMP-12h", "assay_type": "biochemical", "conditions": "read-out: Ki MMP-12h; human MMP-12"}, "[3]": {"assay": "Determination of the plasma concentration in mice after infusion", "conditions": "mouse, intravenous, 10 mg/kg"}, "human MMPs [4]": {"test_system": "human MMPs", "assay": "Inhibition of the panel of human MMPs (overall statements, selectivity)", "assay_type": "biochemical", "conditions": "other human MMPs versus MMP-12"}, "MMP-12h [5]": {"target": "T1, MMP-12h", "conditions": "reported by Devel et al., J. Biol. Chem. 2006; read-out: inhibition constant Ki for human MMP-12; cited from earlier work"}, "human MMPs [6]": {"test_system": "human MMPs", "conditions": "reported by Devel et al., J. Biol. Chem. 2006; cited from earlier work"}}, "note": "Like-named read-outs stand apart in the source and are kept apart here.", "data": [{"smiles": "NC(=O)[C@H](CCC(=O)O)NC(=O)[C@H](CCC(=O)O)NC(=O)CCc1ccc(-c2ccccc2)cc1", "note": "[Compound 40, (S)-5-amino-4-((S)-2-(3-(biphenyl-4-yl)propanamido)-4-carboxybutanamido)-5-oxopentanoic acid]", "values": [{"measurement": "Ki", "setting": "MMP-3h", "result": "> 5000", "unit": "nM"}, {"measurement": "Ki", "setting": "MMP-14h", "result": "> 5000", "unit": "nM"}, {"measurement": "Ki", "setting": "MMP-9h", "result": "> 1000", "unit": "nM"}, {"measurement": "Ki", "setting": "MMP-1h", "result": "> 100000", "unit": "nM"}, {"measurement": "by-product resulting from the compound", "setting": "[1]; LC-MS and MS/MS", "result": "No by-product"}, {"measurement": "amount detected in intact form", "setting": "[1]; LC-MS, initial solution 10 nM", "result": 50, "unit": "fmol"}, {"measurement": "loss of the starting material", "setting": "[1]; attributed to nonspecific association with the eppendorf wall", "result": 50, "unit": "%"}, {"measurement": "Ki", "setting": "MMP-7h", "result": "> 10000", "unit": "nM"}, {"measurement": "Ki", "setting": "MMP-10h", "result": "> 1000", "unit": "nM"}, {"measurement": "Ki", "setting": "MMP-8h", "result": 226, "unit": "nM"}, {"measurement": "Ki", "setting": "MMP-13h", "result": 689, "unit": "nM"}, {"measurement": "Ki", "setting": "MMP-2h", "result": 445, "unit": "nM"}]}, {"smiles": "Cc1ccc(-c2ccc(CCC(=O)N[C@@H](CCC(=O)O)C(=O)N[C@@H](CCC(=O)O)C(N)=O)cc2)s1", "note": "[Compound 91, (S)-5-amino-4-((S)-4-carboxy-2-(3-(4-(5-methylthiophen-2-yl)phenyl)propanamido)butanamido)-5-oxopentanoic acid]", "values": [{"measurement": "Ki", "setting": "MMP-3h; read-out: Ki MMP-3h", "result": "> 1000", "unit": "nM"}, {"measurement": "Ki", "setting": "MMP-14h; read-out: Ki MMP-14h", "result": "> 1000", "unit": "nM"}, {"measurement": "Ki", "setting": "MMP-12h [2]", "result": 1.84, "unit": "nM"}, {"measurement": "concentration at 5 min", "setting": "[3]", "result": 1000, "unit": "nM"}, {"measurement": "Ki", "setting": "MMP-9h; read-out: Ki MMP-9h", "result": 242, "unit": "nM"}, {"measurement": "Ki", "setting": "MMP-10h; read-out: Ki MMP-10h", "result": 353, "unit": "nM"}, {"measurement": "Ki", "setting": "MMP-8h; read-out: Ki MMP-8h", "result": 10.3, "unit": "nM"}, {"measurement": "Ki", "setting": "MMP-13h; read-out: Ki MMP-13h", "result": 564, "unit": "nM"}, {"measurement": "Ki", "setting": "MMP-2h; read-out: Ki MMP-2h", "result": 97, "unit": "nM"}]}, {"smiles": "NC(=O)[C@H](CC(=O)O)NC(=O)[C@H](CCC(=O)O)NC(=O)CCc1ccc(-c2cc(-c3ccccc3)cs2)cc1", "note": "[Compound 101, (S)-5-((S)-1-amino-3-carboxy-1-oxopropan-2-ylamino)-5-oxo-4-(3-(4-(4-phenylthiophen-2-yl)phenyl)propanamido)pentanoic acid]", "values": [{"measurement": "Ki", "setting": "MMP-3h; read-out: Ki MMP-3h", "result": "> 5000", "unit": "nM"}, {"measurement": "Ki", "setting": "MMP-14h; read-out: Ki MMP-14h", "result": "> 1000", "unit": "nM"}, {"measurement": "Ki", "setting": "MMP-12h [2]", "result": 2.56, "unit": "nM"}, {"measurement": "Ki", "setting": "MMP-9h; read-out: Ki MMP-9h", "result": "> 5000", "unit": "nM"}, {"measurement": "Ki", "setting": "MMP-1h; read-out: Ki MMP-1h", "result": "> 100000", "unit": "nM"}, {"measurement": "Ki", "setting": "MMP-7h; read-out: Ki MMP-7h", "result": "> 100000", "unit": "nM"}, {"measurement": "selectivity factor F = Ki MMP-x/Ki MMP-12", "setting": "human MMPs [4]", "result": "> 100"}, {"measurement": "Ki", "setting": "MMP-10h; read-out: Ki MMP-10h", "result": 571, "unit": "nM"}, {"measurement": "Ki", "setting": "MMP-8h; read-out: Ki MMP-8h", "result": 379, "unit": "nM"}, {"measurement": "Ki", "setting": "MMP-13h; read-out: Ki MMP-13h", "result": 933, "unit": "nM"}, {"measurement": "Ki", "setting": "MMP-2h; read-out: Ki MMP-2h", "result": "> 1000", "unit": "nM"}]}, {"smiles": "NC(=O)[C@H](CCC(=O)O)NC(=O)[C@H](CCC(=O)O)NC(=O)[C@H](Cc1cc(-c2ccc(-c3cccc(Cl)c3)cc2)no1)CP(=O)(O)c1ccc(Br)cc1", "note": "[RXP470, reference compound]", "values": [{"measurement": "Ki", "setting": "MMP-3h; read-out: Ki MMP-3h", "result": 58, "unit": "nM"}, {"measurement": "Ki", "setting": "MMP-14h; read-out: Ki MMP-14h", "result": 80, "unit": "nM"}, {"measurement": "Ki", "setting": "MMP-12h [2]", "result": 0.2, "unit": "nM"}, {"measurement": "Ki", "setting": "MMP-9h; read-out: Ki MMP-9h", "result": 850, "unit": "nM"}, {"measurement": "Ki", "setting": "MMP-12h [5]", "result": 0.4, "unit": "nM"}, {"measurement": "potency toward MMPs 1, 2, 3, 7, 8, 9, 11, 13 and 14 compared with MMP-12", "setting": "human MMPs [6]", "result": "two to three orders of magnitude less powerful"}, {"measurement": "Ki", "setting": "MMP-10h; read-out: Ki MMP-10h", "result": 8.3, "unit": "nM"}, {"measurement": "Ki", "setting": "MMP-8h; read-out: Ki MMP-8h", "result": 77, "unit": "nM"}, {"measurement": "Ki", "setting": "MMP-13h; read-out: Ki MMP-13h", "result": 13, "unit": "nM"}, {"measurement": "Ki", "setting": "MMP-2h; read-out: Ki MMP-2h", "result": 72, "unit": "nM"}]}, {"smiles": "NC(=O)[C@H](CCCC(=O)O)NC(=O)[C@H](CCC(=O)O)NC(=O)CCc1ccc(-c2cc(-c3ccccc3)cs2)cc1", "note": "[Compound 103, (S)-6-amino-5-((S)-4-carboxy-2-(3-(4-(4-phenylthiophen-2-yl)phenyl)propanamido)butanamido)-6-oxohexanoic acid]", "values": [{"measurement": "Ki", "setting": "MMP-3h; read-out: Ki MMP-3h", "result": "> 5000", "unit": "nM"}, {"measurement": "Ki", "setting": "MMP-14h; read-out: Ki MMP-14h", "result": "> 1000", "unit": "nM"}, {"measurement": "Ki", "setting": "MMP-12h [2]", "result": 2.9, "unit": "nM"}, {"measurement": "Ki", "setting": "MMP-9h; read-out: Ki MMP-9h", "result": "> 5000", "unit": "nM"}, {"measurement": "Ki", "setting": "MMP-1h; read-out: Ki MMP-1h", "result": "> 10000", "unit": "nM"}, {"measurement": "Ki", "setting": "MMP-7h; read-out: Ki MMP-7h", "result": "> 5000", "unit": "nM"}, {"measurement": "selectivity factor F = Ki MMP-x/Ki MMP-12", "setting": "human MMPs [4]", "result": "> 100"}, {"measurement": "Ki", "setting": "MMP-10h; read-out: Ki MMP-10h", "result": 845, "unit": "nM"}, {"measurement": "Ki", "setting": "MMP-8h; read-out: Ki MMP-8h", "result": 656, "unit": "nM"}, {"measurement": "Ki", "setting": "MMP-13h; read-out: Ki MMP-13h", "result": 563, "unit": "nM"}, {"measurement": "Ki", "setting": "MMP-2h; read-out: Ki MMP-2h", "result": "> 1000", "unit": "nM"}]}]}
